Data from publication PMC5190008, “BO-1055, a novel DNA cross-linking agent with remarkable low myelotoxicity shows potent activity in sarcoma models” (Oncotarget, 2016).

Tests used:
[1] = In vivo toxicity testing: complete blood counts, renal and liver function tests; details: C57 healthy mice
Text: However myelotoxicity has been a challenge, resulting in delay in treatment cycles and infectious complications. Hematopoietic toxicity was partly alleviated by the administration of G-CSF [32] and allowed dose-escalation. […] Overcoming hematopoietic and organ toxicities will allow us to administer chemotherapy at a higher dose and at a shorter interval, which can potentially result in better cure rates. […] This was also seen in the in vivo toxicity study in C57 healthy mice where hematologic toxicity was not observed at day 10 after 5 doses of BO-1055 at 30mg/kg/dose (Supplementary Table 1). […]
Supplementary table 1. Complete blood counts, renal and […] function tests in C57 healthy mice (n=4 per group) in control and treatment groups. Treatment group received BO--1055 at 30mg/kg/dose on days […]
Control group BO--1055 group Control group BO--1055 group baseline baseline day 10 day 10
Mean SD Mean SD Mean SD Mean SD

cord blood CD34+ cells = assay: Comet assay; type: cell-based, human; details: 3h
Procedure: We used comet assay, which includes single cell gel electrophoresis to assess DNA breaks when exposed to radiation or DNA damaging agents. […] Olive moment (micrometers), a product of tail DNA% and the distance between the centroids of head and tail, is an accurate parameter of DNA damage. […] Gamma-H2AX (γH2AX) phosphorylation is the initial step in DNA damage response following double stranded breaks and is responsible for recruiting DNA repair proteins.
Comet assay was performed according to the protocol described earlier. Cells were treated with BO-1055 at 2μM concentration for 3h, or immediately after exposure to 8Gy radiation after which they were isolated and mixed with 1% low melting point agarose in a tube. The cells in agarose were transferred to slides coated with normal melting point agarose. The agarose-immobilized cells were lysed in alkaline solution and the agarose trapped DNA was electrophoresed. DNA was stained with ethidium bromide and image acquisition was done immediately. DNA damage quantification was performed using OpenComet v1.3, an open-source software plugin in Image J 1.47v software (NIH, USA) for automated analysis. Olive moment, which is the product of tail DNA% and the distance between the intensity-weighted centroids of head and tail was taken from the output for analysis.

[2] = tested on: rhabdomyosarcoma cell lines; assay: Alamar Blue cell proliferation assay; type: cell-based, human
Procedure: AlamarBlue® assay (Invitrogen, Carlsbad, CA, USA) was performed to evaluate anti-proliferative activity of the drugs in cell lines and primary cells. Cells were plated in 96-well plates ([…] in 200 μL of medium). After 12 h, one of the previously mentioned drugs was added to each well at the specified concentration and incubated for 72 h. At the end of the incubation period, 20 μL of stock solution (0.312 mg/mL) of the Alamar Blue was added to each well. The absorbance was measured using the Synergy H1 hybrid multi-mode microplate reader (BioTek, USA). The drug effect was quantified as the percentage of control absorbance at 540 nm and 585 nm. Optical density was determined for 3 replicates per treatment condition and cell proliferation in drug-treated cells was normalized to their respective controls. All experiments were performed in triplicate.
Data are presented as mean±S.E.M. of at least three independent experiments done in triplicate. […] Combination index (CI) values, as calculated by CompuSyn software (Chou and Martin, 2007), were used to evaluate the interaction between BO-1055 and a second drug (Topotecan, SN38, Doxorubicin or PU-H71). The Chou-Talalay method was used to quantify the synergism (CI < 1), additive effect (CI = 1) and antagonism (CI > 1) of various drug combinations.

A204 cells = assay: Cell cycle analysis (propidium iodide); type: cell-based, human; details: A204, prominent at 12-24h of exposure
Procedure: (§1) Cell viability and apoptosis were determined using 7-AAD (BD Pharmingen, San Diego, CA) and Annexin V-APC (BD Pharmingen, San Diego, CA) staining according to the instructions provided by the manufacturer and as previously published. Cell cycle fractions were determined by propidium iodide nuclear staining. Briefly, cells were harvested, washed in PBS, fixed with 70% ethanol, and incubated with propidium iodide/RNase buffer (BD Biosciences, San Diego, CA) for 15 minutes at room temperature. Data was collected on BD LSR Fortessa fluorescence-activated cell analyzer using BD FACS Diva software and analyzed using FlowJo version 9.6 software (Tree Star, Inc. Ashland, OR). Cell cycle analysis was done by applying the Dean/Jett/Fox cell cycle model using FlowJo software.

A673 cells = assay: Cell cycle analysis (propidium iodide); type: cell-based, human; details: A673, prominent at 12-24h of exposure
Procedure: as §1

[3] = 30mg/kg/dose on days 1,3,5,8 and 10, day 10, mean, n=4

For `CN(C)CCNC(=O)c1cccc(NC(=O)Nc2ccc(N(CCCl)CCCl)cc2)c1` [BO-1055], which ALT [1, 3] is on record?
The ALT was 89.50 U/L.

And the AST [1, 3]?
The AST was 74.25 U/L.

And the BASO [1, 3]?
Its BASO is 0.45%.

And the “BASO#” value [1, 3]?
Its value is 0.02 K/uL.

And the BUN [1, 3]?
The BUN was 24.50 mg/dL.

What about the BUN/CREA ratio [1, 3] of the same compound?
Its BUN/CREA ratio is 125.40.

What about the CREA [1, 3] of the same compound?
The CREA was 0.20 mg/dL.

And the DBIL [1, 3]?
Its DBIL is 0.00 mg/dL.

And the EO [1, 3]?
The EO was 2.93%.

What about the “EO#” value [1, 3] of the same compound?
Its value is 0.13 K/uL.

And the GLU [1, 3]?
The GLU was 166.00 mg/dL.

And the HCT [1, 3]?
The HCT was 46.30%.

And the HGB [1, 3]?
Its HGB is 13.08 g/dL.

What about the IBIL [1, 3] of the same compound?
Its IBIL is 0.13 mg/dL.

What about the LYMPH [1, 3] of the same compound?
Its LYMPH is 51.63%.

And the “LYMPH#” value [1, 3]?
The value was 2.90 K/uL.

And the MCH [1, 3]?
Its MCH is 14.40 pg.

And the MCHC [1, 3]?
Its MCHC is 28.28 g/dL.

What about the MCV [1, 3] of the same compound?
The MCV was 51.03 fL.

And the MONO [1, 3]?
The MONO was 7.80%.

And the “MONO#” value [1, 3]?
Its value is 0.39 K/uL.

And the MPV [1, 3]?
The MPV was 6.38 fL.

What about the NEUT [1, 3] of the same compound?
Its NEUT is 37.20%.

And the “NEUT#” value [1, 3]?
Its value is 1.90 K/uL.

And the PDW [1, 3]?
Its PDW is 7.40 fL.

And the PLT [1, 3]?
Its PLT is 1108.25 K/uL.

And the RBC [1, 3]?
The RBC was 9.08 M/uL.

And the RDW-CV [1, 3]?
The RDW-CV was 23.18%.

What about the RDW-SD [1, 3] of the same compound?
Its RDW-SD is 32.48 fL.

And the RET [1, 3]?
The RET was 4.72%.

And the “RET#” value [1, 3]?
The value was 426.88 K/uL.

What about the TBIL [1, 3] of the same compound?
Its TBIL is 0.23 mg/dL.

And the TP [1, 3]?
Its TP is 3.77 g/dL.

And the “WBC#” value [1, 3]?
Its value is 5.34 K/uL.

What about the “change in hematocrit, platelet count or neutrophil count” value ([1]; day 10) of the same compound?
Its value is “did not reveal a significant change”.

What about the hematologic toxicity ([1]; day 10 after 5 doses at 30mg/kg/dose) of the same compound?
Its hematologic toxicity is “not observed”.

What about the “olive moment relative to radiation (XRT, 8Gy)” value (cord blood CD34+ cells) of the same compound?
Its value is “relatively less”.

What about the IC50 [2] of the same compound?
Its IC50 is “submicromolar”.

What about the cell cycle effect (A204 cells) of the same compound?
Its cell cycle effect is “concentration-dependent accumulation of cells in the G2/M phase”.

And the cell cycle effect (A673 cells)?
Its cell cycle effect is “concentration-dependent accumulation of cells in the G2/M phase”.
